# Values quoted from earlier work in US20020009704A1, “Oocyte vitrification technique” (priority 2000, published 2002).
# Test system: bovine oocytes
structure (smiles),measurement,value
OCCO [ethylene glycol],toxicity for bovine oocytes,relatively low toxicity
